The text below walks through data of US5091398A, “Substituted 1,2,3,4-oxatriazolium-5-olates, a process for their preparation and their use” (Cassella Aktiengellschaft, priority 1989, dated 1992).

Read-outs that look alike come from different tables or passages of the source.

The assay has as its system pulmonary artery of the guinea pig. Kind of assay: relaxing effect on spiral strips of the pulmonary artery of the guinea pig (modified method of Godfraind and Kaba and of Schuman et al.). The conditions noted are these: strips depolarised with 40 mmol/l potassium in calcium-free Tyrode solution, contraction by 0.5 mmol/l CaCl2, cumulative addition, mean value of 4 to 6 vessel strips, read-out: IC50 (concentration of the test substance which inhibits the contraction by 50%) (converted). How it is done:
The pharmacological effect of the compounds of the formula I was determined according to a modified method of Godfraind and Kaba (Arch. Int. Phamacodyn. Ther. 196, (Suppl) 35 to 49, 1972) and of Schuman et al. (Naunyn-Schmiedeberg's Arch. Phamacol. 289, 409 to 418, 1975). Spiral strips of the pulmonary artery of the guinea pig are depolarised with 40 mmol/1 of potassium after equilibration in calcium-free Tyrode solution. An addition of 0.5 mmol/1 of CaCl2 then induces a contraction. The relaxing effect of the test substance is determined by cumulative addition in 1/2 log 10 stepped concentrations. The concentration of the test substance which inhibits the contraction by 50% (=IC50, mol/1) is determined from the concentration-effect curve (abscissa: -log mol/1 of test substance, ordinate: percentage inhibition of the maximum contraction, mean value of 4 to 6 vessel strips).

`CCCC(C)(C)[n+]1noc([O-])n1` [Example 5, 3-(2-Methylpent-2-yl)-1,2,3,4-oxatriazolium-5-olate]: the IC50 (Cavia porcellus) is 600 nM. For `CCOC(=O)[N-]c1cn(N2CCOCC2)n[o+]1` [Molsidomine, N-ethoxycarbonyl-3-morpholinosydnoneimine, reference compound], the IC50 was over 100000 nM.

Take `CC(C)(C)NC(=O)C(C)(C)[n+]1noc([O-])n1` [Example 4, 3-(1-tert-Butylaminocarbonyl-1-methylethyl)-1,2,3,4-oxatriazolium-5-olate]: under “Cavia porcellus”, the IC50 was 60000 nM. Take `CCC(C)(C)[n+]1noc([O-])n1` [Example 1, 3-tert-Pentyl-1,2,3,4-oxatriazolium-5-olate]: under “Cavia porcellus”, the IC50 was 3000 nM.
